The target of this assay is BRD4 (Homo sapiens, UniProt O60885). Kind of assay: Time Resolved Fluorescence Resonance Energy Transfer (TR-FRET) binding assay. Particulars: one of the FRET assays described (BRD4 construct not given).

33 compounds from patent publication US10053454B2 (Bristol-Myers Squibb Company, priority 2013, dated 2018) can be followed below.

Broadly, the IC50 is the concentration needed to halve the response being measured. A higher IC50 goes with lower potency.

`Cc1noc(C)c1-c1cc(C(N)=O)c2c(c1)c1ccc(C(=O)N3CC(F)(F)C3)cc1n2S(=O)(=O)C1CC1` [Example 24, 9-(cyclopropylsulfonyl)-7-((3,3-difluoro-1-azetidinyl)carbonyl)-3-(3,5-dimethyl-4-isoxazolyl)-9H-carbazole-1-carboxamide] yielded an IC50 below 50 nM. `Cc1noc(C)c1-c1cc(C(N)=O)c2c(c1)c1ccc(C(=O)N3CCCOCC3)cc1n2S(=O)(=O)C1CC1` [Example 25, 9-(cyclopropylsulfonyl)-3-(3,5-dimethyl-4-isoxazolyl)-7-(1,4-oxazepan-4-ylcarbonyl)-9H-carbazole-1-carboxamide] displayed a 50% inhibitory concentration (IC50) below 50 nM. Then `Cc1noc(C)c1-c1cc(C(N)=O)c2c(c1)c1ccc(C(=O)N3CCC(F)(F)CC3)cc1n2S(=O)(=O)C1CC1` [Example 26, 9-(cyclopropylsulfonyl)-7-((4,4-difluoro-1-piperidinyl)carbonyl)-3-(3,5-dimethyl-4-isoxazolyl)-9H-carbazole-1-carboxamide], with below 50 nM; and `Cc1noc(C)c1-c1cc(C(N)=O)c2c(c1)c1ccc(NC(=O)OC(C)(C)C)cc1n2CC1CC1` [Example 27, tert-butyl(8-carbamoyl-9-(cyclopropylmethyl)-6-(3,5-dimethyl-4-isoxazolyl)-9H-carbazol-2-yl)carbamate], with below 500 nM.

`Cc1noc(C)c1-c1cc(C(N)=O)c2c(c1)c1ccc(N)cc1n2CC1CC1` [Example 28, 7-amino-9-(cyclopropylmethyl)-3-(3,5-dimethyl-4-isoxazolyl)-9H-carbazole-1-carboxamide] gave an IC50 below 500 nM. In turn, `CC(=O)Nc1ccc2c3cc(-c4c(C)noc4C)cc(C(N)=O)c3n(CC3CC3)c2c1` [Example 29, 7-acetamido-9-(cyclopropylmethyl)-3-(3,5-dimethyl-4-isoxazolyl)-9H-carbazole-1-carboxamide] had a half-inhibitory concentration (IC50) below 500 nM. Compound `Cc1noc(C)c1-c1cc(C(N)=O)c2c(c1)c1ccc(N(c3nccs3)c3nccs3)cc1n2CC1CC1` [Example 30, 9-(cyclopropylmethyl)-3-(3,5-dimethyl-4-isoxazolyl)-7-(di-1,3-thiazol-2-ylamino)-9H-carbazole-1-carboxamide] returned an IC50 below 500 nM.

Regarding `CCNC(=O)Nc1ccc2c3cc(-c4c(C)noc4C)cc(C(N)=O)c3n(CC3CC3)c2c1` [Example 31, 9-(cyclopropylmethyl)-3-(3,5-dimethyl-4-isoxazolyl)-7-((ethylcarbamoyl)amino)-9H-carbazole-1-carboxamide], the IC50 was below 500 nM. Compound `CCOC(=O)Nc1ccc2c3cc(-c4c(C)noc4C)cc(C(N)=O)c3n(CC3CC3)c2c1` [Example 32, Ethyl(8-carbamoyl-9-(cyclopropylmethyl)-6-(3,5-dimethyl-4-isoxazolyl)-9H-carbazol-2-yl)carbamate] had an IC50 below 5000 nM. `Cc1noc(C)c1-c1cc(C(N)=O)c2c(c1)c1ccc(Br)cc1n2CC1CC1` [Example 34, 7-bromo-9-(cyclopropylmethyl)-3-(3,5-dimethyl-4-isoxazolyl)-9H-carbazole-1-carboxamide] gave an IC50 below 500 nM. `Cc1noc(C)c1-c1cc(C(N)=O)c2c(c1)c1cc(Br)c(Br)cc1n2CC1CC1` [Example 35, 6,7-dibromo-9-(cyclopropylmethyl)-3-(3,5-dimethyl-4-isoxazolyl)-9H-carbazole-1-carboxamide]: the IC50 is below 500 nM. `Cc1noc(C)c1-c1cc(C(N)=O)c2c(c1)c1ccc(-c3ccncc3)cc1n2CC1CC1` [Example 36, 9-(cyclopropylmethyl)-3-(3,5-dimethyl-4-isoxazolyl)-7-(4-pyridinyl)-9H-carbazole-1-carboxamide] returned an IC50 below 500 nM.

With `CNc1ccc2c3cc(-c4c(C)noc4C)cc(C(N)=O)c3n(CC3CC3)c2c1` [Example 37, 9-(cyclopropylmethyl)-3-(3,5-dimethyl-4-isoxazolyl)-7-(methylamino)-9H-carbazole-1-carboxamide], the IC50 is below 500 nM. With `Cc1noc(C)c1-c1cc(C(N)=O)c2c(c1)c1ccc(N(C)C)cc1n2CC1CC1` [Example 38, 9-(cyclopropylmethyl)-7-(dimethylamino)-3-(3,5-dimethyl-4-isoxazolyl)-9H-carbazole-1-carboxamide], the IC50 is below 50 nM. The compound `Cc1noc(C)c1-c1cc(C(N)=O)c2c(c1)c1ccc(NCC3CCCC3)cc1n2CC1CC1` [Example 39, 7-(cyclopentylmethylamino)-9-(cyclopropylmethyl)-3-(3,5-dimethyl-4-isoxazolyl)-9H-carbazole-1-carboxamide] returned an IC50 below 500 nM.

As for `CC(=O)N(C)c1ccc2c3cc(-c4c(C)noc4C)cc(C(N)=O)c3n(CC3CC3)c2c1` [Example 40, 7-(acetyl(methyl)amino)-9-(cyclopropylmethyl)-3-(3,5-dimethyl-4-isoxazolyl)-9H-carbazole-1-carboxamide], the IC50 was below 50 nM.

`Cc1noc(C)c1-c1cc(C(N)=O)c2c(c1)c1ccc(N3CCCCC3=O)cc1n2CC1CC1` [Example 42, 9-(cyclopropylmethyl)-3-(3,5-dimethyl-4-isoxazolyl)-7-(2-oxo-1-piperidinyl)-9H-carbazole-1-carboxamide] had an IC50 below 500 nM.

Consider `Cc1noc(C)c1-c1cc(C(N)=O)c2c(c1)c1ccc(N3CCCOC3=O)cc1n2CC1CC1` [Example 43, 9-(cyclopropylmethyl)-3-(3,5-dimethyl-4-isoxazolyl)-7-(2-oxo-1,3-oxazinan-3-yl)-9H-carbazole-1-carboxamide], for which the IC50 was below 50 nM. Regarding `Cc1noc(C)c1-c1cc(C(N)=O)c2c(c1)c1ccc(N3CCOC3=O)cc1n2CC1CC1` [Example 45, 9-(cyclopropylmethyl)-3-(3,5-dimethyl-4-isoxazolyl)-7-(2-oxo-1,3-oxazolidin-3-yl)-9H-carbazole-1-carboxamide], the IC50 was below 500 nM. Consider `Cc1noc(C)c1-c1cc(C(N)=O)c2c(c1)c1ccc(CO)cc1n2CC1CC1` [Example 46, 9-(cyclopropylmethyl)-3-(3,5-dimethyl-4-isoxazolyl)-7-(hydroxymethyl)-9H-carbazole-1-carboxamide], for which the IC50 was below 500 nM. Compound `Cc1noc(C)c1-c1cc(C(N)=O)c2c(c1)c1ccc(C=O)cc1n2CC1CC1` [Example 47, 9-(cyclopropylmethyl)-3-(3,5-dimethyl-4-isoxazolyl)-7-formyl-9H-carbazole-1-carboxamide] displayed an IC50 below 500 nM.

`Cc1noc(C)c1-c1cc(C(N)=O)c2c(c1)c1ccc(O)cc1n2CC1CC1` [Example 48, 9-(cyclopropylmethyl)-3-(3,5-dimethyl-4-isoxazolyl)-7-hydroxy-9H-carbazole-1-carboxamide] returned an IC50 below 500 nM. With `COc1ccc2c3cc(-c4c(C)noc4C)cc(C(N)=O)c3n(CC3CC3)c2c1` [Example 49, 9-(cyclopropylmethyl)-3-(3,5-dimethyl-4-isoxazolyl)-7-methoxy-9H-carbazole-1-carboxamide], the IC50 was below 50 nM.

With `Cc1noc(C)c1-c1cc(C(N)=O)c2c(c1)c1ccc(OC(=O)N3CCOCC3)cc1n2CC1CC1` [Example 50, 8-carbamoyl-9-(cyclopropylmethyl)-6-(3,5-dimethyl-4-isoxazolyl)-9H-carbazol-2-yl morpholine-4-carboxylate], the IC50 is below 500 nM.

With `Cc1noc(C)c1-c1cc(C(N)=O)c2c(c1)c1ccc(CN3CCOCC3)cc1n2CC1CC1` [Example 51, 9-(cyclopropylmethyl)-3-(3,5-dimethyl-4-isoxazolyl)-7-(4-morpholinylmethyl)-9H-carbazole-1-carboxamide], the IC50 was below 500 nM. Consider `Cc1noc(C)c1-c1cc(C(N)=O)c2c(c1)c1ccc(C(C)(C)N3CCOCC3)cc1n2CC1CC1` [Example 52, 9-(cyclopropylmethyl)-3-(3,5-dimethyl-4-isoxazolyl)-7-(1-methyl-1-(4-morpholinyl)ethyl)-9H-carbazole-1-carboxamide], for which the IC50 was below 50 nM. For the compound `Cc1noc(C)c1-c1cc(C(N)=O)c2c(c1)c1ccc(C(C)(C)O)cc1n2CC1CC1` [Example 53, 9-(cyclopropylmethyl)-3-(3,5-dimethyl-4-isoxazolyl)-7-(1-hydroxy-1-methylethyl)-9H-carbazole-1-carboxamide], the IC50 is below 500 nM. For `Cc1noc(C)c1-c1cc(C(N)=O)c2c(c1)c1ccc(C(C)(C)O)cc1n2S(=O)(=O)C1CC1` [Example 55, 9-(cyclopropylsulfonyl)-3-(3,5-dimethyl-4-isoxazolyl)-7-(1-hydroxy-1-methylethyl)-9H-carbazole-1-carboxamide], the IC50 is below 50 nM.

`Cc1nocc1-c1cc(C(N)=O)c2c(c1)c1ccc(C(=O)N3C[C@@H](C)O[C@@H](C)C3)cc1n2CC1CC1` [Example 56, 9-(cyclopropylmethyl)-7-((cis-2,6-dimethyl-4-morpholinyl)carbonyl)-3-(3-methyl-4-isoxazolyl)-9H-carbazole-1-carboxamide] registered an IC50 below 500 nM. The compound `Cc1oncc1-c1cc(C(N)=O)c2c(c1)c1ccc(C(=O)N3C[C@@H](C)O[C@@H](C)C3)cc1n2CC1CC1` [Example 57, 9-(cyclopropylmethyl)-7-((cis-2,6-dimethyl-4-morpholinyl)carbonyl)-3-(5-methyl-4-isoxazolyl)-9H-carbazole-1-carboxamide] registered an IC50 below 500 nM.

`Cc1noc(C)c1-c1cc(C#N)c2[nH]c3cc(C(=O)N4CCOCC4)ccc3c2c1` [Example 58, 3-(3,5-dimethyl-4-isoxazolyl)-7-(4-morpholinylcarbonyl)-9H-carbazole-1-carbonitrile] yielded an IC50 below 5000 nM. Then `Cc1noc(C)c1-c1cc(C#N)c2c(c1)c1ccc(C(=O)N3CCOCC3)cc1n2CC1CC1` [Example 59, 9-(cyclopropylmethyl)-3-(3,5-dimethyl-4-isoxazolyl)-7-(4-morpholinylcarbonyl)-9H-carbazole-1-carbonitrile], with below 5000 nM.

`CC(=O)n1c2cc(C(=O)N3C[C@@H](C)O[C@@H](C)C3)ccc2c2cc(-c3c(C)noc3C)cc(C(N)=O)c21` [Example 60, 9-acetyl-3-(3,5-dimethyl-4-isoxazolyl)-7-(cis-2,6-dimethylmorpholine-4-carbonyl)-9H-carbazole-1-carboxamide] had an IC50 below 5000 nM.
